Data from patent US20170029841A1, “METHODS AND COMPOSITIONS FOR SELECTIVE REGULATION OF PROTEIN EXPRESSION” (priority 2015, published 2017).

Tested on: maize tissue pools (tassel, ear, leaf, root, stem)
Assay: siRNA profiling microarray assay of mts-siRNA sequences across maize tissues
Conditions: for 01DKD2 V8-V9 Tassel relative signal value: germplasm 01DKD2, V8-V9 tassel; for 01DKD2 V10-V12 Tassel relative signal value: germplasm 01DKD2, V10-V12 tassel; for 01DKD2 Other Tissue relative signal value: germplasm 01DKD2, combined signals from other tissue; for LH244 V8-V9 Tassel relative signal value: germplasm LH244, V8-V9 tassel; for LH244 V10-V12 Tassel relative signal value: germplasm LH244, V10-V12 tassel; for LH244 Other Tissue relative signal value: germplasm LH244, combined signals from other tissue
Procedure, shortened: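 Total RNA from LH244 or 01DKD2 inbred maize tissue pools hybridized to microfluidic chips with triplicate complementary probes for 1,200 mts-siRNAs. Signals background-subtracted and normalized, reported as relative values with standard error. Differential expression by t-test, p<0.05.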

SEQ ID NO: 57: mts-siRNA sequence aligning to cDNA SEQ ID NO: 20 (GACATTTGCAGTTCTATGGTGT; expressed or natural sequence)
01DKD2 V8-V9 Tassel relative signal value: 29 | 01DKD2 V10-V12 Tassel relative signal value: 134.5 | 01DKD2 Other Tissue relative signal value: 3.8 | LH244 V8-V9 Tassel relative signal value: 126.5 | LH244 V10-V12 Tassel relative signal value: 248 | LH244 Other Tissue relative signal value: 2.4

SEQ ID NO: 86: mts-siRNA sequence aligning to cDNA SEQ ID NO: 22 (CAAGGCAAGAAGGTGCTTGTTGTC; expressed or natural sequence)
01DKD2 V8-V9 Tassel relative signal value: 3 | 01DKD2 V10-V12 Tassel relative signal value: 256.5 | 01DKD2 Other Tissue relative signal value: 3 | LH244 V8-V9 Tassel relative signal value: 173.5 | LH244 V10-V12 Tassel relative signal value: 241.7 | LH244 Other Tissue relative signal value: 2.4

SEQ ID NO: 80: mts-siRNA sequence aligning to cDNA SEQ ID NO: 22 (CATCAACGACTACAACGGTGAA; expressed or natural sequence)
01DKD2 V8-V9 Tassel relative signal value: 2.5 | 01DKD2 V10-V12 Tassel relative signal value: 230 | 01DKD2 Other Tissue relative signal value: 0.5 | LH244 V8-V9 Tassel relative signal value: 138 | LH244 V10-V12 Tassel relative signal value: 383.3 | LH244 Other Tissue relative signal value: 0.7

SEQ ID NO: 76: mts-siRNA sequence aligning to cDNA SEQ ID NO: 22 (ACAGTGACTCACCAGTGCATG; expressed or natural sequence)
01DKD2 V8-V9 Tassel relative signal value: 2.5 | 01DKD2 V10-V12 Tassel relative signal value: 276.5 | 01DKD2 Other Tissue relative signal value: 4 | LH244 V8-V9 Tassel relative signal value: 55 | LH244 V10-V12 Tassel relative signal value: 252.3 | LH244 Other Tissue relative signal value: 5.7

SEQ ID NO: 87: mts-siRNA sequence aligning to cDNA SEQ ID NO: 22 (ACCAAGGATGTCGTCACCACCAAT; expressed or natural sequence)
01DKD2 V8-V9 Tassel relative signal value: 25 | 01DKD2 V10-V12 Tassel relative signal value: 91.5 | 01DKD2 Other Tissue relative signal value: 2.5 | LH244 V8-V9 Tassel relative signal value: 56 | LH244 V10-V12 Tassel relative signal value: 104 | LH244 Other Tissue relative signal value: 4.7

SEQ ID NO: 84: mts-siRNA sequence aligning to cDNA SEQ ID NO: 22 (AAGAAGGTGCTTGTTGTC; expressed or natural sequence)
01DKD2 V8-V9 Tassel relative signal value: 0 | 01DKD2 V10-V12 Tassel relative signal value: 20 | 01DKD2 Other Tissue relative signal value: 1 | LH244 V8-V9 Tassel relative signal value: 13 | LH244 V10-V12 Tassel relative signal value: 35.7 | LH244 Other Tissue relative signal value: 4.4

SEQ ID NO: 62: mts-siRNA sequence aligning to cDNA SEQ ID NO: 21 (CAAATGAGTCATCGAAGCTGT; expressed or natural sequence)
01DKD2 V8-V9 Tassel relative signal value: 13.5 | 01DKD2 V10-V12 Tassel relative signal value: 15.5 | 01DKD2 Other Tissue relative signal value: 1 | LH244 V8-V9 Tassel relative signal value: 44.5 | LH244 V10-V12 Tassel relative signal value: 11.3 | LH244 Other Tissue relative signal value: 1.8

SEQ ID NO: 75: mts-siRNA sequence aligning to cDNA SEQ ID NO: 22 (ACAGTGACTCACCAGTGCATGCAC; expressed or natural sequence)
01DKD2 V8-V9 Tassel relative signal value: 3 | 01DKD2 V10-V12 Tassel relative signal value: 257 | 01DKD2 Other Tissue relative signal value: 5 | LH244 V8-V9 Tassel relative signal value: 53 | LH244 V10-V12 Tassel relative signal value: 237.3 | LH244 Other Tissue relative signal value: 3.3

SEQ ID NO: 26: mts-siRNA sequence aligning to cDNA SEQ ID NO: 17 (CGCATGTCACATCGCCGTCCTC; expressed or natural sequence)
01DKD2 V8-V9 Tassel relative signal value: 10 | 01DKD2 V10-V12 Tassel relative signal value: 104 | 01DKD2 Other Tissue relative signal value: 3.8 | LH244 V8-V9 Tassel relative signal value: 55.5 | LH244 V10-V12 Tassel relative signal value: 175.7 | LH244 Other Tissue relative signal value: 3.8

SEQ ID NO: 25: mts-siRNA sequence aligning to cDNA SEQ ID NO: 17 (ACGACCGTGCATGGTGAT; expressed or natural sequence)
01DKD2 V8-V9 Tassel relative signal value: 56 | 01DKD2 V10-V12 Tassel relative signal value: 440 | 01DKD2 Other Tissue relative signal value: 2.3 | LH244 V8-V9 Tassel relative signal value: 289 | LH244 V10-V12 Tassel relative signal value: 824.3 | LH244 Other Tissue relative signal value: 2.6

SEQ ID NO: 70: mts-siRNA sequence aligning to cDNA SEQ ID NO: 22 (CATGCACTGGTGAGTCACTGTTG; expressed or natural sequence)
01DKD2 V8-V9 Tassel relative signal value: 3 | 01DKD2 V10-V12 Tassel relative signal value: 873 | 01DKD2 Other Tissue relative signal value: 4 | LH244 V8-V9 Tassel relative signal value: 56.5 | LH244 V10-V12 Tassel relative signal value: 694 | LH244 Other Tissue relative signal value: 1.8

SEQ ID NO: 60: mts-siRNA sequence aligning to cDNA SEQ ID NO: 20 (CGTCGTGCAGCTGGTCACCGGT; expressed or natural sequence)
01DKD2 V8-V9 Tassel relative signal value: 75.5 | 01DKD2 V10-V12 Tassel relative signal value: 303 | 01DKD2 Other Tissue relative signal value: 9.3 | LH244 V8-V9 Tassel relative signal value: 141.5 | LH244 V10-V12 Tassel relative signal value: 265.7 | LH244 Other Tissue relative signal value: 5.8

SEQ ID NO: 41: mts-siRNA sequence aligning to cDNA SEQ ID NO: 18 (ACCCTTGCGCCTTAACTATCGTGC; expressed or natural sequence)
01DKD2 V8-V9 Tassel relative signal value: 5 | 01DKD2 V10-V12 Tassel relative signal value: 752 | 01DKD2 Other Tissue relative signal value: 3 | LH244 V8-V9 Tassel relative signal value: 185.5 | LH244 V10-V12 Tassel relative signal value: 702.7 | LH244 Other Tissue relative signal value: 0.9

SEQ ID NO: 35: mts-siRNA sequence aligning to cDNA SEQ ID NO: 18 (TAGCCACACGGTCACGTTTGGACG; expressed or natural sequence)
01DKD2 V8-V9 Tassel relative signal value: 4 | 01DKD2 V10-V12 Tassel relative signal value: 519 | 01DKD2 Other Tissue relative signal value: 2.8 | LH244 V8-V9 Tassel relative signal value: 437 | LH244 V10-V12 Tassel relative signal value: 117.7 | LH244 Other Tissue relative signal value: 1.6

SEQ ID NO: 32: mts-siRNA sequence aligning to cDNA SEQ ID NO: 18 (TAGCCACACGGTCACGTTTGGAC; expressed or natural sequence)
01DKD2 V8-V9 Tassel relative signal value: 7.5 | 01DKD2 V10-V12 Tassel relative signal value: 516 | 01DKD2 Other Tissue relative signal value: 2.8 | LH244 V8-V9 Tassel relative signal value: 376.5 | LH244 V10-V12 Tassel relative signal value: 118 | LH244 Other Tissue relative signal value: 2

SEQ ID NO: 47: mts-siRNA sequence aligning to cDNA SEQ ID NO: 19 (TGGTGTGGTCGTTAGCTACTTTA; expressed or natural sequence)
01DKD2 V8-V9 Tassel relative signal value: 12.5 | 01DKD2 V10-V12 Tassel relative signal value: 1051.5 | 01DKD2 Other Tissue relative signal value: 4 | LH244 V8-V9 Tassel relative signal value: 157.5 | LH244 V10-V12 Tassel relative signal value: 900.7 | LH244 Other Tissue relative signal value: 15.5

SEQ ID NO: 79: mts-siRNA sequence aligning to cDNA SEQ ID NO: 22 (CAAGGCAAGAAGGTGCTTGTTGTCC; expressed or natural sequence)
01DKD2 V8-V9 Tassel relative signal value: 5 | 01DKD2 V10-V12 Tassel relative signal value: 290.5 | 01DKD2 Other Tissue relative signal value: 2 | LH244 V8-V9 Tassel relative signal value: 197.5 | LH244 V10-V12 Tassel relative signal value: 269.3 | LH244 Other Tissue relative signal value: 1.9
